Source: publication PMC11467779, “New anti-ovarian cancer quinolone derivatives acting by modulating microRNA processing machinery” (RSC Medicinal Chemistry, 2024)

Legend:
[1] = tested on: WT HCCLM3 cells; experiment: Antiproliferative effect on WT HCCLM3 cells (CCK-8); assay type: cell-based, human; details: 30 μM, 48 hours
Protocol: (§1) HCCLM3 and SK-Hep-1 cells were seeded into 96-well plates at a density of 10 000 cells per well and allowed to adhere overnight. Subsequently, the cells were treated with the following substances: 0.1% DMSO as the negative control, various concentrations of the test compounds, and 125 μM enoxacin as the positive control. After 48 h of incubation, the original culture medium was removed, and the cells were washed twice with PBS. Then, 100 μL of DMEM culture medium containing 10% CCK-8 (Bimake, USA) was added to each well. The plates were incubated for 30 minutes at 37 °C. To determine the […], measurements were taken at a wavelength of 450 nm using a Varioskan from Thermo Fisher Scientific.

[2] = tested on: shRNA to siRNA maturation (GAPDH mRNA); experiment: RNAi enhancing activity (shRNA to siRNA maturation, GAPDH mRNA in HEK-293T_shGAPDH); assay type: cell-based, human; details: 50 μM, 48 hours
Protocol: HEK-293T_shSCR and HEK-293T_shGAPDH were treated with 50 μM of enoxacin and 33 for 48 hours before RNA extraction and expression analysis.
Lentiviral particles were produced by calcium phosphate transient transfection of HEK-293T cells with specific lentiviral plasmids (shGAPDH: TRCN0000445616 and shSCR: TRCN0000015937 from SIGMA-ALDRICH) together with the packaging plasmids (pLP1and pLP2) and the envelope plasmid pLP/VSVG. For each lentiviral plasmid one 150 mm plate of HEK293T cells was used for transfection. After 14–16 hours the medium was replaced with complete medium supplemented with 1 mM sodium butyrate (SIGMA-ALDRICH). The collection of medium containing lentiviral particles occurs 48 h and 72 h after transfection; complete medium supplemented with sodium butyrate was added after the first collection. […]
Total RNA was extracted using the Direct-zol RNA MiniPrep kit (Zymo Research) with on-column DNase treatment, according to the manufacturer's instructions. Reverse transcription was carried out with SuperScript VILO cDNA Synthesis Kit (Life Technologies) and the cDNA samples were analyzed by qRT-PCR using PowerUp SYBR Green Master Mix (Thermo Fisher Scientific). For miR-21 expression analysis total RNA was retrotranscribed using miRCURY® LNA® RT Kit (Qiagen) and the cDNA was analyzed by using miRCURY® LNA® miRNA PCR Assay (Qiagen). […]

[3] = tested on: A2780 cells; experiment: A2780 cell number, cell death and apoptosis markers (trypan blue, Western blot); assay type: cell-based, human
Source text: […] […] Total cell number and viability have been assessed using Trypan Blue Solution (Thermo Fisher Scientific) and Countess™ 3 Automated Cell Counter (Thermo Fisher Scientific).
Lysates were loaded on 4–12% bis–tris-acrylamide gel (Life Technologies) and transferred to a nitrocellulose membrane. The membrane was blocked in 5% milk and hybridized with α-TRBP (15753-1-AP Proteintech), α-GAPDH (sc-25778, Santa Cruz Biotechnology), α-c-PARP (Bioss Antibodies, BSM-52408R), α-BCLXL (mAb #2764, Cell Signaling Technology) and α-β-actin (A3854, Sigma) antibodies. All the images were captured using the ChemiDocTM Touch Imaging System (Bio-Rad), and the densitometric analyses were performed using the associated Image Lab software (Bio-Rad).

[4] = tested on: KO TRBP SK-Hep-1 cells; experiment: Antiproliferative effect on KO TRBP SK-Hep-1 cells (CCK-8); assay type: cell-based, human; details: 48 hours
Protocol: as §1

[5] = Cytotoxicity against non-tumor Wi-38 cells (CC50, cell count); assay type: cell-based; details: human, Wi-38 cells (non-tumor), 50% cytotoxicity concentration, 72 hours of treatment
Protocol: SKOV-3, A2780 and A2780 CIS were cultured and maintained, as previously described,[50] at 37 °C in RPMI 1640 medium (Euroclone) supplemented with 10% fetal bovine serum (FBS; Euroclone), L-glutamine and penicillin/streptomycin (SIGMA-ALDRICH). OVCA433, HEK-293T, HeLa, HCCLM3, SK-Hep-1, MCF-7, A549 and HCT-116 cells were maintained in DMEM medium (Euroclone) containing 10% FBS (Euroclone), L-glutamine and penicillin/streptomycin (SIGMA-ALDRICH). Wi-38 cells were cultured in DMEM medium (Euroclone) supplemented with 10% FBS (Euroclone), L-glutamine and penicillin/streptomycin (SIGMA-ALDRICH), and 1% non-essential amino acids (NEAA; Euroclone). The cultures were maintained in a constant temperature incubator at 37 °C with 5% CO2. […] Once cell adhesion had been promoted, the compounds were added to the culture medium. After 72 hours of treatment, the cells were counted, and the data analyzed by linear regression. Each experiment was carried out three times in triplicate and three separate cell counts were made for each sample. […] Afterwards, the concentration range was narrowed to the relative value obtained in the first evaluation in order to obtain an accurate value.

Compound: O=C(O)c1cn(C2CC2)c2cc(N3CCc4ccccc4C3)c(F)cc2c1=O [Compound 33, 1-Cyclopropyl-7-(3,4-dihydroisoquinolin-2(1H)-yl)-6-fluoro-4-oxo-1,4-dihydroquinoline-3-carboxylic acid]
- reduction of viability of WT HCCLM3 cells [1]: about 50%
- RNAi enhancing effect (GAPDH mRNA decrease) [2]: modest but significant RNAi enhancing effect
- Bcl-XL protein in A2780 cells ([3]; 30 μM, 72 hours, Western blot): downregulation
- cleaved PARP1 (c-PARP) levels in A2780 cells ([3]; 30 μM, 72 hours, Western blot): increased levels of cleaved PARP1
- percentage of dead A2780 cells ([3]; 30 μM, 72 hours, trypan blue): increased to a great extent
- total number of A2780 cells ([3]; 30 μM, 72 hours, trypan blue): greatly reduced
- effect of 33 in combination with cisplatin on A2780 proliferation ([3]; 33 30 μM + cisplatin 1 μM, 48 hours): more pronounced inhibitory effect on A2780 proliferation
- antiproliferative effect on KO TRBP SK-Hep-1 cells ([4]; 30 μM): no antiproliferative effect
- viability of KO TRBP SK-Hep-1 cells ([4]; 50 μM): not affecting
- CC50 at 72 h [5]: 143 ± 42.7 µM
